This note sets out measurements from patent US9381208B2, “Structure and use of 5′ phosphate oligonucleotides” (Rheinische Friedrich-Wilhelms-Universität, priority 2006, dated 2016).

The data set deals with human primary monocytes. Description: IFN-α production in human primary monocytes transfected with RNA (ELISA). It counts as cell-based. The conditions noted are these: for IFN-α-inducing activity conferred by the 5′ 4-nucleotide sequence: adenosine-initiated in vitro transcribed RNA oligonucleotides, FIG. 13; for IFN-α induction (*100%) mean: monocytes from three donors, 36 hours after transfection, normalized to the mean induction level of all oligonucleotides (=100%).

{ppp} = triphosphate group

For “agguggggac acacacacac acacacacac (AGGUGGGGACACACACACACACACACACAC; RNA, 5' {ppp}, backbone not given here) [SEQ ID No. 155]”, the “IFN-α-inducing activity conferred by the 5′ 4-nucleotide sequence” value (shortened to “IFN-α-inducing activity conferred”) is “highest IFN-α-inducing activity” and the “IFN-α induction (*100%) mean” value is listed as 1.18 *100%.
Take “acuuggggac acacacacac acacacacac (ACUUGGGGACACACACACACACACACACAC; RNA, 5' {ppp}, backbone not given here) [SEQ ID No. 118]”: the “IFN-α induction (*100%) mean” value is recorded as 0.66 *100%.
As for “augaggggac acacacacac acacacacac (AUGAGGGGACACACACACACACACACACAC; RNA, 5' {ppp}, backbone not given here) [SEQ ID No. 169]”, the “IFN-α-inducing activity conferred” value is reported as “highest IFN-α-inducing activity” and the “IFN-α induction (*100%) mean” value is on record as 1.32 *100%.
For “aacuggggac acacacacac acacacacac (AACUGGGGACACACACACACACACACACAC; RNA, 5' {ppp}, backbone not given here) [SEQ ID No. 163]”, the “IFN-α-inducing activity conferred” value is reported as “highest IFN-α-inducing activity” and the “IFN-α induction (*100%) mean” value is listed as 1.29 *100%.
With “agugggggac acacacacac acacacacac (AGUGGGGGACACACACACACACACACACAC; RNA, 5' {ppp}, backbone not given here) [SEQ ID No. 143]”, the “IFN-α-inducing activity conferred” value is on record as “highest IFN-α-inducing activity” and the “IFN-α induction (*100%) mean” value is 1.01 *100%.
For the substance “acguggggac acacacacac acacacacac (ACGUGGGGACACACACACACACACACACAC; RNA, 5' {ppp}, backbone not given here) [SEQ ID No. 125]”, the “IFN-α induction (*100%) mean” value is listed as 0.77 *100%.
On the same count and under the same terms, as for “agauggggac acacacacac acacacacac (AGAUGGGGACACACACACACACACACACAC; RNA, 5' {ppp}, backbone not given here) [SEQ ID No. 113]”, the figure is 0.48 *100%.
Regarding “aucgggggac acacacacac acacacacac (AUCGGGGGACACACACACACACACACACAC; RNA, 5' {ppp}, backbone not given here) [SEQ ID No. 162]”, the “IFN-α-inducing activity conferred” value was “highest IFN-α-inducing activity” and the “IFN-α induction (*100%) mean” value is recorded as 1.28 *100%.
On to “aggaggggac acacacacac acacacacac (AGGAGGGGACACACACACACACACACACAC; RNA, 5' {ppp}, backbone not given here) [SEQ ID No. 161]”, for which the “IFN-α-inducing activity conferred” value was “highest IFN-α-inducing activity” and the “IFN-α induction (*100%) mean” value was 1.27 *100%.
Regarding “5′-PPPGGGAGACAGGCCCCCCCCCCCCCCCCCCCCC-3′ [tri-poly C]”, for the setting “200 ng RNA transfected, 24 hours, ELISA”, the “IFN-α production in monocytes” value is listed as “equally potent”.
On to “agcuggggac acacacacac acacacacac (AGCUGGGGACACACACACACACACACACAC; RNA, 5' {ppp}, backbone not given here) [SEQ ID No. 120]”, for which the “IFN-α induction (*100%) mean” value is on record as 0.69 *100%.
